Data as given in PMC3162579 (Fluids and Barriers of the CNS, 2011).
Several values for one entry are separate records, joined by “and”; a condition that tells them apart may be missing. Identical values can stand only once.

Key:
[1] = tested on: brain-to-blood [^125I]hAβ(1-40) efflux transport across the BBB; assay: Brain Efflux Index (BEI) study: elimination of [^125I]hAβ(1-40) after intracerebral microinjection; format: in vivo; settings: for decrease of percentage of [^125I]hAβ(1-40) remaining in ipsilateral cerebrum versus vehicle-treated control: n = 5; for effect on percentage of [^125I]hAβ(1-40) remaining versus vehicle-treated control: single i.p. 1 μg/mouse
Protocol: Control mice were injected i.p. with 100 μL of each vehicle solution. After an indicated time (24, 48, or 72 h), the in vivo brain elimination experiments were performed using the intracerebral microinjection technique. Briefly, mice were anesthetized with an intramuscular injection of xylazine (1.22 mg/kg) and ketamine (125 mg/kg), and placed in a stereotaxic frame (SRS-6; Narishige, Tokyo, Japan) that determines the coordinates of the mouse brain coinciding with the secondary somatosensory cortex 2 (S2) region. A small hole was made 3.8 mm lateral to the bregma, and a fine injection needle fitted to a 5.0 μl microsyringe (Hamilton, Reno, NE, USA) was advanced to a depth of 2.5 mm. The solution of [^125I]hAβ(1-40) was freshly prepared from lyophilized [^125I]hAβ(1-40) immediately before each experiment. Lyophilized [^125I]hAβ(1-40) was solubilized in H2O and then added to an equal volume of 2-fold concentration of extracellular fluid (ECF) buffer (244 mM NaCl, 50 mM NaHCO3, 6 mM KCl, 2.8 mM CaCl2, 2.4 mM MgSO4, 0.8 mM K2HPO4, 20 mM D-glucose, and 20 mM HEPES, pH 7.4). […] The applied solution (0.3 μl) containing [^125I]hAβ(1-40) and [^3H]dextran in an ECF buffer was administered into the S2 region over a period of 30 sec. After microinjection, the microsyringe was left in place for 4 min to minimize any backflow. At 5, 30 or 60 min after microinjection, ipsilateral (left) and contralateral (right) cerebrum and cerebellum were excised and dissolved in 2.0 ml 2 M NaOH at 60°C for 1 h. The ^125I and ^3H radioactivities of the samples were measured in a γ-counter (ART300, Aloka, Tokyo, Japan) for 3 min and a liquid scintillation counter (TRI-CARB2050CA, Packard Instruments, Meriden, CT, USA) for 5 min, respectively. The BEI was defined by Equation (1), and the percentage of substrate remaining in the ipsilateral cerebrum (100-BEI) was determined using Equation (2): [drawing 1] [drawing 2]
The apparent elimination rate constant (kel) was determined from the slope given by fitting a semilogarithmic plot of (100-BEI) versus time, using the nonlinear least-squares regression analysis program MULTI [27].

TM-BBB4 cells [2] = assay: In vitro internalization (acid-resistant binding) of [^125I]hAβ(1-40) in TM-BBB4 cells; format: cell-based, mouse
Protocol: The TM-BBB4 cell line, established from transgenic mice harboring the temperature-sensitive SV40 large T-antigen gene, was used in this study. TM-BBB4 cells were cultured at 33°C in Dulbecco's modified Eagle's medium (DMEM; Nissui Pharmaceutical Co., Tokyo, Japan), supplemented with 20 mM NaHCO3, 2 mM L-glutamine, 15 ng/ml endothelial cell growth factor, 100 U/ml benzyl penicillin, […] streptomycin sulfate, and 10% fetal bovine serum (Moregate, Bulimba, Australia) in an atmosphere of 95% air and 5% CO2.
TM-BBB4 cells were seeded on 24-well plates (Becton Dickinson, Bedford, MA, USA) at a density of 1.0 × 10^5 cells/2 cm^2/well and cultured for 24 h. The cells were treated with the indicated concentrations of forskolin and U0126 or vehicle for 24 h, and then internalization of [^125I]hAβ(1-40) into TM-BBB4 cells was examined as previously described. Briefly, the extent of TM-BBB4 cell-[^125I]hAβ(1-40) (0.15 μCi/200 μl in ECF buffer) binding was measured for 3 min at 37°C. After the indicated times, binding was terminated by removing the solution, and the cells were washed three times with 1 ml ice-cold ECF buffer. The cells were then incubated with 1 ml ice-cold acetate-barbital buffer (28 mM CH3COONa, 120 mM NaCl, 20 mM barbital sodium (pH 3.0) and 360 mOsm/kg) for 20 min at 4°C to remove [^125I]hAβ(1-40) bound to the cell surface. After incubation, the buffer was then recovered (acid-soluble fraction) and the cells were subsequently washed three times with ice-cold acetate-barbital buffer.
(§1) Acid-resistant binding represents the amount of internalized [^125I]hAβ(1-40) in the TM-BBB4 cells. The cells were solubilized with 200 μl of 5 M NaOH overnight and neutralized with 200 μl of 5 M HCl. The ^125I radioactivity was measured using a γ-counter (ART310, Aloka, Tokyo, Japan). The protein content of the cultured cells was measured using a DC protein assay kit (Bio-Rad, Hercules, CA, USA) with bovine serum albumin as a standard.

[3] = Tolerability in mice: body weight, behavior, residual [^3H]dextran (BBB integrity); format: in vivo; settings: mouse, data not shown
[4] = after i.p. administration; cited from earlier work
Source text: Reduction of Aβ in the CNS is considered to be a primary therapeutic target for AD.

[5] = design: method as in PMID 2339131; settings: mice receiving over 0.1 μg every other day for 2 weeks; cited from earlier work
TM-BBB4 cells [6] = assay: Protein content of TM-BBB4 cells after the uptake (DC protein assay); format: cell-based, mouse
Protocol: as §1

[7] = tested on: elimination of [^125I]hAβ(1-40) from rat brain; settings: cited from earlier work
Protocol: The present study examined the [^125I]hAβ(1-40) elimination from the brain for 60 min, and considerable degradation of injected [^125I]hAβ(1-40) might occur during this period.

## C=C1/C(=C\C=C2/CCC[C@]3(C)[C@@H]([C@H](C)CCCC(C)(C)O)CC[C@@H]23)C[C@@H](O)C[C@@H]1O [1,25(OH)2D3, 1α,25-dihydroxyvitamin D3]
[1]; 1 μg/mouse i.p., 24 h, not significantly different from vehicle (114%)
  initial percentage of [^125I]hAβ(1-40) remaining in the mouse brain: 118%
[1]; mouse, 1 μg/mouse i.p., 24 h, 60 min after microinjection, time-profile experiment (Figure 1A)
  percentage of [^125I]hAβ(1-40) remaining in brain compared with vehicle-treatment group: significantly lower
[1]; mouse, 1 μg/mouse i.p., 24 h after injection, p < 0.01
  increase of [^125I]hAβ(1-40) elimination rate constant versus vehicle-treated group: 1.3 fold and 1.29 fold
[1]; mouse, single i.p. 0.2 μg/mouse, 24 h, 60 min after microinjection
  decrease of percentage of [^125I]hAβ(1-40) remaining in ipsilateral cerebrum versus vehicle-treated control: 12.9%
[1]; mouse, 24 h after administration, 60 min after microinjection, n = 4-5 (Figure 2B)
  effect on percentage of [^125I]hAβ(1-40) remaining versus vehicle-treated control: significant reduction
[1]; mouse, 48 h after administration, 60 min after microinjection, n = 4-5
  effect on percentage of [^125I]hAβ(1-40) remaining versus vehicle-treated control: no significant reduction
[1]; mouse, 72 h after administration, 60 min after microinjection, n = 4-5
  effect on percentage of [^125I]hAβ(1-40) remaining versus vehicle-treated control: no significant reduction
[1]; mouse, single i.p. 5 μg/mouse, 24 h, 60 min after microinjection
  decrease of percentage of [^125I]hAβ(1-40) remaining in ipsilateral cerebrum versus vehicle-treated control: 19.5%
[1]; mouse, single i.p. dose 1 μg/mouse, 24 h before microinjection, slope of (100-BEI) time profile 5-60 min, mean ± SD, n = 3-5, vehicle group 1.85 × 10^-2
  apparent elimination rate constant (kel) of [^125I]hAβ(1-40) across the BBB: 0.0238 ± 0.0009 min⁻¹
TM-BBB4 cells [2]; data not shown
  effect on [^125I]hAβ(1-40) internalization by TM-BBB4: failed to provide consistent results
[3]; 1 μg/day, from day 4
  adverse effects during repeated treatment: reduced body weight and abnormal behavior
[3]; single i.p. dose, up to 72 h after administration
  body weight: No significant decrease
[4]
  time at which plasma concentration reaches a maximum: ≤ 2 h
  time at which plasma concentration returns to baseline: 24 h
[5]
  hypercalcemia (calcium level): over 12 mg/dL

## C=C[C@@]1(C)CC(=O)[C@]2(O)[C@@]3(C)[C@@H](O)CCC(C)(C)[C@@H]3[C@H](O)[C@H](OC(C)=O)[C@@]2(C)O1 [forskolin]
[1]; single i.p. 2.3 μg/mouse, 24 h, 60 min after microinjection, n = 4-5
  decrease of percentage of [^125I]hAβ(1-40) remaining in mouse brain versus vehicle-treated group: 16.4%
[1]; single i.p. 23 μg/mouse, 24 h, 60 min after microinjection, n = 4-5
  decrease of percentage of [^125I]hAβ(1-40) remaining in mouse brain versus vehicle-treated group: 16.4%
TM-BBB4 cells [2]; pre-treatment 10 μM for 24 h, 0.1% DMSO, [^125I]hAβ(1-40) 0.4 nM, 3 min, 37°C, n = 4
  effect on acid-resistant binding (internalization) of [^125I]hAβ(1-40) by TM-BBB4 cells: significantly increased

## N#CC(=C(/N)Sc1ccccc1N)/C(C#N)=C(/N)Sc1ccccc1N [U0126]
TM-BBB4 cells [2]; U0126 25 μM with forskolin 10 μM for 24 h, [^125I]hAβ(1-40) 0.4 nM, 3 min, n = 4
  effect on forskolin-induced enhancement of [^125I]hAβ(1-40) acid-resistant binding: suppressed
TM-BBB4 cells [2]; pre-treatment with U0126 alone, 25 μM, 24 h, 3 min uptake, n = 4
  reduction of acid-resistant binding of [^125I]hAβ(1-40) compared with the control: 11.2%
TM-BBB4 cells [6]; 24 h treatment (U0126 25 μM, forskolin 10 μM), mean ± SEM, n = 4, control 89.8 ± 6.0
  protein content of the cells after the uptake: 72.0 ± 7.0 μg protein/well
TM-BBB4 cells [6]; U0126 25 μM, 24 h, versus control 89.8 ± 6.0 μg protein/well
  reduction of protein content of the cells after the uptake: 19.8%

## N[C@@H](Cc1ccc(O)cc1)C(=O)O [L-tyrosine]
[7]
  inhibition of elimination of [^125I]hAβ(1-40) from rat brain: not significantly inhibited

## C[C@H](/C=C/[C@H](C)C(C)(C)O)[C@H]1CC[C@H]2/C(=C/C=C3C[C@@H](O)C[C@H](O)C3)CCC[C@]12C [paricalcitol]
[1]; data not shown
  effect on [^125I]hAβ(1-40) elimination from mouse brain: did not significantly enhance
